{"source": "patent US4455290A", "about": "“Inhibition of fibrin polymerization by a peptide isolated from fibrin Fragment D1” (Research Corporation, priority 1981, dated 1984)", "key": {"bovine serum albumin": {"molecular_target": "bovine serum albumin (Bos taurus, UniProt P02769)", "sequence (P02769 25-607)": "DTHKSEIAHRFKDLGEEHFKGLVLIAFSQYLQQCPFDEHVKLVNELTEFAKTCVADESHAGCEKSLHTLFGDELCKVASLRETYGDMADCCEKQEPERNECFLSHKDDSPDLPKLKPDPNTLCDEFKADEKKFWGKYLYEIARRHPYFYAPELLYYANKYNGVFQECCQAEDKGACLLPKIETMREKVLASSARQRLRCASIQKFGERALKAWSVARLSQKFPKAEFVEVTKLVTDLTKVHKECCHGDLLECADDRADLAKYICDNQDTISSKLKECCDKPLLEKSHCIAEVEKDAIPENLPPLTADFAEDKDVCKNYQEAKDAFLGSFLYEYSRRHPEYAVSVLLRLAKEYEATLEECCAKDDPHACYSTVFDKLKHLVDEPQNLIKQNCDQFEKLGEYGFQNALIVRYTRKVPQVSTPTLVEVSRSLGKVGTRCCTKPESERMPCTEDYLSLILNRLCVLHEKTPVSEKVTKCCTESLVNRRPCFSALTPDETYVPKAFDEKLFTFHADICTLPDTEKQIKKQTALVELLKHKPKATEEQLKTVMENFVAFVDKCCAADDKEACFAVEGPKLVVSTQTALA", "assay": "Equilibrium binding of 125-I D1 Peptide, bovine serum albumin", "excerpt": "Acta 133, 376-379 (1979)."}, "thrombin fibrin monomer": {"molecular_target": "T1, thrombin fibrin monomer (Homo sapiens, UniProt P02671+P02675+P02679)", "T1 construct": "Thrombin cleaves the bonds Aα16 Arg-17 Gly and Bβ14 Arg-15 Gly, releasing two molecules of fibrinopeptide A and two molecules of fibrinopeptide B; made in house; host or cells: not recombinant: made from fibrinogen by treatment with thrombin", "T1 sequence (P02671 36-629 isoform P02671-2)": "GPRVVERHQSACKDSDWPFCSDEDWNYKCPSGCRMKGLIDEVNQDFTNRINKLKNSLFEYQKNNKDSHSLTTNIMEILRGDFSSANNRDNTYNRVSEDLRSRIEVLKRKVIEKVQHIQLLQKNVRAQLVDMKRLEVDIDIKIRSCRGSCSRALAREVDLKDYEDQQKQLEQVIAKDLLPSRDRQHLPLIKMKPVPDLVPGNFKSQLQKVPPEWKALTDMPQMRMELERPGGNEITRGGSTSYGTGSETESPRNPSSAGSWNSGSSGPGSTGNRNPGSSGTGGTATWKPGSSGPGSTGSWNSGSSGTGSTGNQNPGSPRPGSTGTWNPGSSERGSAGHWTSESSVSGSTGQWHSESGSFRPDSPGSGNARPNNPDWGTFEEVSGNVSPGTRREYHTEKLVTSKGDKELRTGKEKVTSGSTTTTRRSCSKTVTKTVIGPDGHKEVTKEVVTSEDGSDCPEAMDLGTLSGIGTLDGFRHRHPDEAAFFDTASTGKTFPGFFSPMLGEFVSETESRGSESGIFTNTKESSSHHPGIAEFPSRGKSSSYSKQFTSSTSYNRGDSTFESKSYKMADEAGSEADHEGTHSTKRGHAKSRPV", "T1 sequence (P02675 45-491)": "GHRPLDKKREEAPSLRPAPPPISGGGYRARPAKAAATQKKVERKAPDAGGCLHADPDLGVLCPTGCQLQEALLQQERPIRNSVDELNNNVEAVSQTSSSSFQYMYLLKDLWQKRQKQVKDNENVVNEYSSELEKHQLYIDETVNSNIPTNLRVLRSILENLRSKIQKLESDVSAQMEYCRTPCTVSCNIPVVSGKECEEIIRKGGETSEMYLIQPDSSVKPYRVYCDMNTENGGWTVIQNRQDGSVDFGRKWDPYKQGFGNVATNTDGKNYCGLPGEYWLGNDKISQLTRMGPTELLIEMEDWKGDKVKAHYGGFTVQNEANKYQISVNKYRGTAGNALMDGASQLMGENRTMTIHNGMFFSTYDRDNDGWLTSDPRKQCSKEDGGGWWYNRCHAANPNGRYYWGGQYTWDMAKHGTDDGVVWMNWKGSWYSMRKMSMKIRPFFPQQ", "T1 sequence (P02679 27-437 isoform P02679-2)": "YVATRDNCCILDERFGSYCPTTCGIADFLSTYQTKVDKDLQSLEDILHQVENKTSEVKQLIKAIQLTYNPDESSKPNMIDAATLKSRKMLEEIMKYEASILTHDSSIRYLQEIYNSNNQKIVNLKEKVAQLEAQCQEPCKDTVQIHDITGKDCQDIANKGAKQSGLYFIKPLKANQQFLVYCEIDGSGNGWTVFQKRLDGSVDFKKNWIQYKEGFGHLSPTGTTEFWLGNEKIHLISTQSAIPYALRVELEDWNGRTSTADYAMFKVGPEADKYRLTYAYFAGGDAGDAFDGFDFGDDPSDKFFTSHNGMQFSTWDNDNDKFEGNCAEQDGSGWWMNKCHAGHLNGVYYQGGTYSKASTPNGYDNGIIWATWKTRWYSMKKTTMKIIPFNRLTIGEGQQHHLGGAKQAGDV", "assay": "Inhibition of fibrin monomer polymerization (absorbance at 350 nm), thrombin fibrin monomer", "assay_type": "biochemical", "conditions": "molar excess of D1 Peptide to fibrin monomer of 100-1000 fold; Sephadex gel equilibrium system; kind of fibrin monomer not stated", "protocol": "Fibrin monomer was prepared according to the method of Belitser et al, Biochem. Biophys. Acta 154, 367-375 (1968) using either thrombin or batroxobin (an enzyme from the venom of Bothrops atrox). The polymerization of fibrin monomer which was formed by batroxobin (lacking fibrinopeptide A) or by thrombin (lacking fibrinopeptides A and B) was inhibited by D1 Peptide. Polymerization was measured spectrophotometrically at 350 nm as has been described in Budzynski, Biochem. Biophys. Acta 584, 284-287 (1979). […] At zero time the recorder was started and 0.01 ml of fibrin monomer (1.5 mg/ml in 0.02M acetic acid) was added, the cells were inverted, and the increase in absorbance at 350 nm was measured continuously for 15 min or until plateau levels were reached. For batroxobin fibrin monomer 0.15 ml of buffer or buffer containing D1 Peptide was mixed with 0.05 ml of batroxobin fibrin monomer (1.5 mg/ml in 0.02M acetic acid). The initial rate of polymerization was calculated from the slope of the steepest part of the curve and expressed as the increase in absorbance per min (A350 ·min^-1)."}, "[1]": {"molecular_target": "T2, thrombin-treated NH2-terminal disulfide knot (NDSK) (Homo sapiens, UniProt P02671+P02675+P02679)", "T2 sequence (P02671 36-70 limits assumed)": "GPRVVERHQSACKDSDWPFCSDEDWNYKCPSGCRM", "T2 sequence (P02675 45-148 limits assumed)": "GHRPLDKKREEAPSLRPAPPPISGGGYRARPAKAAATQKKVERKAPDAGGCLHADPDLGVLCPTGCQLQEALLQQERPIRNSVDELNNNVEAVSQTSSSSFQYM", "T2 sequence (P02679 27-453)": "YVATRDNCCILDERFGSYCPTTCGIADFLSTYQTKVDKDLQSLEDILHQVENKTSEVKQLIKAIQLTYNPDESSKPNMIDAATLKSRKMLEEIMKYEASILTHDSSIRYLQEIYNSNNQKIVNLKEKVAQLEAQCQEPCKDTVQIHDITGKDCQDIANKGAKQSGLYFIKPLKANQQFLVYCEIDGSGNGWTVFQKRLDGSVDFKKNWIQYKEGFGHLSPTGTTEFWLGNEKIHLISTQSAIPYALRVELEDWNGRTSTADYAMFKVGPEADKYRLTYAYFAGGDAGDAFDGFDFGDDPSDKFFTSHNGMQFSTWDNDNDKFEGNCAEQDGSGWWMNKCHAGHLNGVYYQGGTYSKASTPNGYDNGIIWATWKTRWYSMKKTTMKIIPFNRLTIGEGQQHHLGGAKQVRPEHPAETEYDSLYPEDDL", "assay": "Equilibrium binding of 125-I D1 Peptide (equilibrium dialysis / Sephadex gel equilibrium), thrombin-treated NDSK"}}, "note": "Peptide text beside a SMILES is read from it.", "data": [{"smiles": "CC[C@H](C)[C@H](NC(=O)[C@H](CCCCN)NC(=O)[C@H](CCSC)NC(=O)[C@@H](NC(=O)[C@@H](NC(=O)[C@H](CCCCN)NC(=O)[C@H](CCCCN)NC(=O)[C@H](CCSC)NC(=O)[C@H](CO)NC(=O)[C@H](Cc1ccc(O)cc1)NC(=O)[C@H](Cc1c[nH]c2ccccc12)NC(=O)[C@H](CCCNC(=N)N)NC(=O)[C@@H](N)[C@@H](C)O)[C@@H](C)O)[C@@H](C)O)C(=O)N[C@H](C(=O)N1CCC[C@H]1C(=O)N[C@@H](Cc1ccccc1)C(=O)N[C@@H](CC(N)=O)C(=O)N[C@@H](CCCNC(=N)N)C(=O)N[C@@H](CC(C)C)C(=O)N[C@H](C(=O)N[C@H](C(=O)NCC(=O)N[C@@H](CCC(=O)O)C(=O)NCC(=O)N[C@@H](CCC(N)=O)C(=O)N[C@@H](CCC(N)=O)C(=O)N[C@@H](Cc1c[nH]cn1)C(=O)N[C@@H](Cc1c[nH]cn1)C(=O)N[C@@H](CC(C)C)C(=O)NCC(=O)NCC(=O)N[C@@H](C)C(=O)N[C@@H](CCCCN)C(=O)N[C@@H](CCC(N)=O)C(=O)N[C@@H](C)C(=O)NCC(=O)N[C@@H](CC(=O)O)C(=O)N[C@H](C(=O)O)C(C)C)[C@@H](C)CC)[C@@H](C)O)[C@@H](C)CC", "note": "[D1 Peptide] (H-TRWYSMKKTTMKIIPFNRLTIGEGQQHHLGGAKQAGDV-OH)", "values": [{"measurement": "binding to bovine serum albumin", "setting": "bovine serum albumin", "result": "no measurable binding"}, {"measurement": "lag time in the fibrin monomer polymerization", "setting": "thrombin fibrin monomer", "result": "more than 30 min"}, {"measurement": "number of binding sites on thrombin-treated NDSK", "setting": "[1]; Scatchard analysis (FIG. 6)", "result": "approximately 2.1"}, {"measurement": "n (number of binding sites)", "setting": "[1]; plot of 1/free ligand vs. total NDSK/bound protein", "result": 2.2}]}]}
